In patent publication US20040039052A1, “Urinary incontinence therapy” (priority 1997, published 2004):

Test system: patients having bladder hyperactivity
Assay: 14-patient study: single intravesical RTX instillation; fill cystometry (MCC), urination diary
Format: in vivo, human
Settings: for Bladder Capacity, % Change / Bladder Capacity, Change from Pre-RTX: Bladder Capacity <200 mL; for Bladder Capacity, % Change / Bladder Capacity, Change from Pre-RTX / Bladder Capacity: n 7; for Mean Incontinent Episodes/day, % Change / Mean Incontinent Episodes/day, Difference from Pre-RTX / Mean Incontinent Episodes/day: n = 8; for Mean incontinent episodes: Pre-RTX 2.1; for Mean bladder capacity: Pre-RTX 182; for Bladder Capacity: patients with Bladder Capacity <200 mL, Pre-RTX 86; for Mean Incontinent Episodes/day: Pre-RTX 3.6
Description: Clinical studies reported herein include the following: observations from the patient's urination diary and their overall assessment of bladder function, maximum cystometric capacity of the bladder, and daily urinary frequency and incontinence episodes. […] Useful and effective treatment is that which alleviates any of the symptoms associated with neurogenic urinary dysfunction.
Patients chosen for study were of either sex, between the ages of 30 and 75, and weighing between 60 kg and 110 kg. Patients were selected having bladder hyperactivity associated with spinal cord injury, multiple sclerosis, peripheral neuropathy, muscular dystrophy or bladder instability. Pregnant women were excluded from the study as were those exposed to any other investigational drug within 30 days of baseline, those exposed to drugs affecting bladder performance or detrusor function within 10 days of baseline, those with known chemical addiction, those with seizure activity or major psychiatric disorders, and those with clinically significant cardiovascular, renal or hepatic disease, upper respiratory disease, malignant disease or clinically significant abnormal clinical laboratory values. Patients taking anti-cholinergic drugs were generally excluded except in a rare instance at the discretion of the investigator, in which case the dosage of anti-cholinergic drug was not changed during the study. Patients previously treated with capsaicin were first monitored to insure a return to baseline parameters in the absence of capsaicin. Preliminary studies to determine RTX dosage efficacy were performed with patients who had previous experience with intravesical capsaicin administration for treatment of bladder hyperactivity. Once a dose range for the study was determined, both previously capsaicin-treated and -untreated patients were employed.
The molecular weight of RTX is 628.72 for the clinical studies described herein. A 10 μM stock solution, 6.3 μg/mL was prepared by dissolving 6.32 mg of 99.5% pure RTX in 1000 mL absolute ethanol. Solutions for therapeutic use were diluted from the ethanolic stock solution into sterile normal saline (0.9% w/v NaCl) or a saline-ethanol mixture such that the final solution was 10% (v/v) ethanol. Therapeutic efficacy was tested for RTX concentrations of 1 μM, 0.1 μM and 0.05 μM. […] Prior to administration, RTX solutions were sterilized by filtration.
Fill cystometry: A two-way 8 F urethral catheter was inserted in the bladder under clean conditions. The residual urine was emptied. Infusion of saline at body temperature was started at a constant speed of […]. Patients were asked to indicate the moment of first desire to void (FDV) and any other sensation. The infusion was stopped at compulsive desire to void and the infused volume taken as the maximal cystometric capacity (MCC). Bladder pressure at which MCC occurs was also recorded. A prophylactic antibiotic (ciprofloxacin, 500 mg every 8 hours) was given during the next 48 hours.
Ice-Water test: The patient was clean catheterized with a two-way urethral catheter. A volume of 50 ml of iced saline (or half of the MCC found in cystometry) was put in a catheter-irrigating syringe and injected into the bladder during a period of 20 seconds. Bladder pressure was constantly measured. The test was considered positive (abnormal) if an involuntary bladder contraction was recorded during the next 60 seconds.
RTX Instillation: An 18 or 20 F three-way Foley catheter was used. The balloon was inflated to 20 ml and maintained gently pulled against the bladder neck to reduce leakage of RTX.
Up to 100 mL RTX solution was introduced into an emptied bladder, retained in the bladder for 30 minutes, then the bladder was emptied and rinsed with normal saline. Prior to treatment, baseline measurements of MCC, micturition frequency and ice water test response made. […]
Patients 1, 2, 6, 7, 8 and 13 received 0.05 μM RTX. The rest received 0.1 μM RTX. […]

[1] = day 14, Frequency ≧ 10/day, n = 7
[2] = day 14, Incontinence > episode/day
[3] = day 14, intent-to-treat, n = 14
[4] = day 30, Frequency ≧ 10/day, n = 7
[5] = day 30, Incontinence > episode/day
[6] = day 30, intent-to-treat, n = 14
[7] = day 60, Frequency ≧ 10/day, n = 7
[8] = day 60, Incontinence > episode/day
[9] = day 60, intent-to-treat, n = 14
[10] = day 90, Frequency ≧ 10/day, n = 7
[11] = day 90, Incontinence > episode/day
[12] = day 90, intent-to-treat, n = 14
[13] = patients able to do spontaneous micturitions

SMILES: C=C(C)[C@]12C[C@@H](C)[C@@]34O[C@](Cc5ccccc5)(O[C@@H]1[C@@H]3C=C(COC(=O)Cc1ccc(O)c(OC)c1)C[C@]1(O)C(=O)C(C)=C[C@@H]41)O2 [RTX, resiniferatoxin]
- patients with meaningful effects, decreases in frequency, urge or wetness (14-patient study): 71%
- MCC (Patient #10 (spinal cord injury), 100 μM RTX instillation, day 14, Baseline MCC 80 ml): 500 mL
- leaks on the worst day (Patient #10, 100 μM RTX instillation, before treatment incontinence episodes more than 7 times per day): 2-3 times per day
- incontinence episodes, Case #11 (after RTX (0.1 μM), no improvement during placebo): substantially decreased incontinence episodes
- symptoms evoked by RTX instillation (all patients, noted by a few patients during the first minutes of the treatment): itching or mild discomfort were the only symptoms evoked by RTX
- incontinence episodes, Case #7 (between days 14 and 30 post-treatment, 0.05 μM, prior: at least once between catheterizations): only one incontinence episode
- Bladder Capacity, % Change (day 14): +224%
- Bladder Capacity, Change from Pre-RTX (day 14): +193 mLs
- Mean Frequency/day, % Change [1]: −34%
- Mean Frequency/day, Change from Pre-RTX [1]: -5.3 day⁻¹
- Mean Incontinent Episodes/day, % Change [2]: −44%
- Mean Incontinent Episodes/day, Difference from Pre-RTX [2]: -1.6 day⁻¹
- Mean Frequency/day (day 14, intent-to-treat analysis, n = 14, Pre-RTX 9.1): 6.9 day⁻¹
- Mean Frequency/day, Difference from pre-RTX [3]: -2.2 day⁻¹
- Mean bladder capacity, Difference from pre-RTX [3]: 95 mL
- Mean incontinent episodes, Difference from pre-RTX [3]: −1.0
- Mean incontinent episodes [3]: 1.0
- Mean bladder capacity [3]: 277 mL
- Bladder Capacity (day 14, single instillation 0.05 or 0.1 μM): 279 mLs
- Mean Frequency/day (day 14, patients with Frequency ≧ 10/day, n = 7, Pre-RTX 15.7): 10.4 day⁻¹
- Mean Incontinent Episodes/day (day 14, patients with Incontinence > episode/day): 2.0 day⁻¹
- Bladder Capacity, % Change (day 30): +156%
- Bladder Capacity, Change from Pre-RTX (day 30): +134 mLs
- Mean Frequency/day, % Change [4]: −28%
- Mean Frequency/day, Change from Pre-RTX [4]: -4.4 day⁻¹
- Mean Frequency/day (day 30, Frequency ≧ 10/day, n = 7, Pre-RTX 15.7): 11.3 day⁻¹
- Mean Incontinent Episodes/day, % Change [5]: −64%
- Mean Incontinent Episodes/day, Difference from Pre-RTX [5]: -2.3 day⁻¹
- Mean Incontinent Episodes/day [5]: 1.3 day⁻¹
- Mean Frequency/day, Difference from pre-RTX [6]: -1.6 day⁻¹
- Mean bladder capacity, Difference from pre-RTX [6]: 64 mL
- Mean incontinent episodes, Difference from pre-RTX [6]: −1.4
- Mean incontinent episodes [6]: 0.7
- Mean Frequency/day (day 30, intent-to-treat, n = 14, Pre-RTX 9.1): 7.5 day⁻¹
- Mean bladder capacity [6]: 247 mL
- Bladder Capacity (day 30): 220 mLs
- Bladder Capacity, % Change (day 60): +159%
- Bladder Capacity, Change from Pre-RTX (day 60): +137 mLs
- Mean Frequency/day, % Change [7]: −34%
- Mean Frequency/day, Change from Pre-RTX [7]: -5.3 day⁻¹
- Mean Frequency/day (day 60, Frequency ≧ 10/day, n = 7, Pre-RTX 15.7): 10.4 day⁻¹
- Mean Incontinent Episodes/day, % Change [8]: −67%
- Mean Incontinent Episodes/day, Difference from Pre-RTX [8]: -2.4 day⁻¹
- Mean Incontinent Episodes/day [8]: 1.2 day⁻¹
- Mean Frequency/day, Difference from pre-RTX [9]: -2.1 day⁻¹
- Mean bladder capacity, Difference from pre-RTX [9]: 45 mL
- Mean incontinent episodes, Difference from pre-RTX [9]: −1.7
- Mean incontinent episodes [9]: 0.4
- Mean Frequency/day (day 60, intent-to-treat, n = 14, Pre-RTX 9.1): 7.0 day⁻¹
- Mean bladder capacity [9]: 228 mL
- Bladder Capacity (day 60): 223 mLs
- Bladder Capacity, Change from Pre-RTX (day 90): +191 mLs
- Mean Frequency/day, % Change [10]: −31%
- Mean Frequency/day, Change from Pre-RTX [10]: -4.9 day⁻¹
- Mean Frequency/day (day 90, Frequency ≧ 10/day, n = 7, Pre-RTX 15.7): 10.8 day⁻¹
- Mean Incontinent Episodes/day, % Change [11]: −58%
- Mean Incontinent Episodes/day, Difference from Pre-RTX [11]: -2.1 day⁻¹
- Mean Incontinent Episodes/day [11]: 1.5 day⁻¹
- Mean Frequency/day, Difference from pre-RTX [12]: -2.6 day⁻¹
- Mean bladder capacity, Difference from pre-RTX [12]: 148 mL
- Mean incontinent episodes, Difference from pre-RTX [12]: −1.5
- Mean incontinent episodes [12]: 0.6
- Mean Frequency/day (day 90, intent-to-treat, n = 14, Pre-RTX 9.1): 6.2 day⁻¹
- Mean bladder capacity [12]: 330 mL
- Bladder Capacity (day 90): 277 mLs
- positive benefit on incontinent episodes (eight evaluable patients with more than one incontinent episode/day): only one did not show a positive benefit
- patients in whom bladder capacity (MCC) increased (out of the 14 patients): 11
- duration of decreased frequency post-treatment [13]: up to 60 days
- improvement in MCC [13]: All patients in the group but one (#1) showed clear improvement (increase) in MCC
- reported improvement after RTX administration (patients requiring self-catheterization or supra-pubic maneuvers (#4, 5, 7, 8 and 11)): all but one (#4) reported improvement
- full continence after RTX instillation (patients who were entirely incontinent (#3, 4, 6, 9, 12, 13 and 14)): five (#3, 6 and 9, 12 and 13) achieved full continence
- duration of effect of a single instillation (single instillation): up to 6 months
